The compounds below were run against T1, Recombinant HCV polymerase (Hepatitis C virus genotype 1b, UniProt P26663) (assay: HCV Polymerase Inhibition Assay). Settings: primer/template-directed transcription, 30 minutes at 30° C.; category symbol.
T1 construct: 2.5 pmoles (0.15 μg) HCV polymerase protein
Format: biochemical
Experimental: The above-described compounds were tested for activity with HCV polymerase. Recombinant HCV polymerase was tested for its ability to perform primer/template-directed transcription in assays that contained 30 mM tris-HCl pH 7.2, 10 mM MgCl2, 20 mM NaCl, 1 mM Dithiothreitol (DTT), 0.05% Tween-20, 1% glycerol, 5 pmoles biotin-dG12 (primer), 0.5 pmoles poly(rC)300 (template), 1 μM GTP, 0.1–0.3 uCi α-^32P-GTP, and 2.5 pmoles (0.15 μg) HCV polymerase protein in a final volume of 75 μL. Reactions were initiated by addition of enzyme and incubated 30 minutes at 30° C. Reactions were stopped by addition of 33 mM EDTA, and polynucleotide products were collected by filtration through Diethylaminoethyl (DE) Filtermat papers (Wallac). Unincorporated triphosphate was removed by washing the filters with 5% dibasic sodium phosphate. The filters were counted in a Packard Tri-Lux Microbeta scintillation counter (Packard Bioscience, Meriden, Conn.). Compounds to be tested were added at various concentrations, e.g., 1 μm to 50 μm, from stocks in 10% DMSO-water (final DMSO is 1% in reaction).
IC50 values were estimated from the primary cpm data (collected in triplicate) using the formula: cpm (I)=cpm (no inhibitor)(1−([I]/([I]+IC50))). An IC50 value represents the concentration (in μM) of a compound that provides 50% inhibition of polymerase-directed transcription in the above assay. A percent inhibition value is expressed for a compound where it was impractical to calculate an IC50 value with available data. If the IC50 estimated by the above equation was less than 200 nM, it was recalculated using the following equation, which takes into account the enzyme concentration (30 nM) in the assay: cpm(I)=cpm(no inhibitor)(1−((((I+IC50+30e−9)−sqrt(((I+IC50+30e−9)^2)−4×30e−9×I)))/((2) (30e−9))). Curve fitting was performed using the program KaleidaGraph (Synergy Software, Reading, Pa.).

T1 sequence (P26663 2420-3010): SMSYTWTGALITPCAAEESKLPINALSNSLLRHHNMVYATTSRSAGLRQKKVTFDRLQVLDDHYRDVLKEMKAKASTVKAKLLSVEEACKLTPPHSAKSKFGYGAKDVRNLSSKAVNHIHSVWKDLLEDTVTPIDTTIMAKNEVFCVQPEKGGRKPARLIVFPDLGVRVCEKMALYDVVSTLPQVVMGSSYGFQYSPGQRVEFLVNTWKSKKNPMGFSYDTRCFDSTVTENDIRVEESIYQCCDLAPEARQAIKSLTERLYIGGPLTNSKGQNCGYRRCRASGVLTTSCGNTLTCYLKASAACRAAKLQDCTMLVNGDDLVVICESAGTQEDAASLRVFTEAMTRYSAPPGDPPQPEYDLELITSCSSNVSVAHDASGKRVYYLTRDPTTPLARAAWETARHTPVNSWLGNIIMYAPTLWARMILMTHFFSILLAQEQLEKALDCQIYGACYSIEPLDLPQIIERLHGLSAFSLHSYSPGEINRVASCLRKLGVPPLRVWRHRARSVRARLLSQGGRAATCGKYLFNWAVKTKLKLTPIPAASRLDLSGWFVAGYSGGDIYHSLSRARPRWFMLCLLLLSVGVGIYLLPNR

**Q.** How did the IC50 turn out when `CCCOc1ccc(CCC2(C3CCCC3)CC(=O)CC(=O)O2)cc1F` (stereo not shown) [Example 72, 6-Cyclopentyl-6-[2-(3-fluoro-4-propoxy-phenyl)-ethyl]-dihydro-pyran-2,4-dione] was run?
**A.** The IC50 was 1 to 10 µM.

**Q.** Which IC50 does the source give for `CC(C)Oc1ccc(CCC2(C3CCCC3)CC(=O)CC(=O)O2)cc1F` (stereo not shown) [Example 73, 6-Cyclopentyl-6-[2-(3-fluoro-4-isopropoxy-phenyl)-ethyl]-dihydro-pyran-2,4-dione] here?
**A.** The IC50 was < 1 µM.

**Q.** `COc1cc(F)c(CCC2(C3CCCC3)CC(=O)CC(=O)O2)cc1F` (stereo not shown) [Example 74, 6-Cyclopentyl-6-[2-(2,5-difluoro-4-methoxy-phenyl)-ethyl]-dihydro-pyran-2,4-dione] was tested. Which IC50 did it give?
**A.** Its IC50 is 1 to 10 µM.

**Q.** How did the IC50 turn out when `CCSc1ccc(CCC2(C3CCCC3)CC(=O)CC(=O)O2)cc1` (stereo not shown) [Example 75, 6-Cyclopentyl-6-[2-(4-ethylsulfanyl-phenyl)-ethyl]-dihydro-pyran-2,4-dione] was run?
**A.** Its IC50 is 1 to 10 µM.

**Q.** Which IC50 does the source give for `CN(C)S(=O)(=O)c1ccc(CCC2(C3CCCC3)CC(=O)CC(=O)O2)cc1` (stereo not shown) [Example 76, 4-[2-(2-Cyclopentyl-4,6-dioxo-tetrahydro-pyran-2-yl)-ethyl]-dimethyl-benzenesulfonamide] here?
**A.** Its IC50 is 10 to 50 µM.

**Q.** With `O=C1CC(=O)OC(CCc2ccc(OC3CCCC3)c(F)c2)(C2CCCC2)C1` (stereo not shown) [Example 77, 6-Cyclopentyl-6-[2-(4-cyclopentyloxy-3-fluoro-phenyl)-ethyl]-dihydro-pyran-2,4-dione] as the compound, how does the IC50 read?
**A.** The IC50 was 1 to 10 µM.

**Q.** `O=C1CC(=O)OC(CCc2ccc(C3OCCO3)c(F)c2)(C2CCCC2)C1` (stereo not shown) [Example 78, 6-Cyclopentyl-6-[2-(4-[1,3]dioxolan-2-yl-3-fluoro-phenyl)-ethyl]-dihydro-pyran-2,4-dione] was tested. Which IC50 did it give?
**A.** The IC50 was 1 to 10 µM.

**Q.** `O=C1CC(=O)OC(CCc2ccc(N3CCCC3=O)cc2)(C2CCCC2)C1` (stereo not shown) [Example 79, 6-Cyclopentyl-6-{2-[4-(2-oxo-pyrrolidin-1-yl)-phenyl]-ethyl}-dihydro-pyran-2,4-dione] was tested. Which IC50 did it give?
**A.** The IC50 was 1 to 10 µM.

**Q.** For `O=C1CC(=O)OC(CCc2ccc(N3CCCC3=O)c(F)c2)(C2CCCC2)C1` (stereo not shown) [Example 80, 6-Cyclopentyl-6-{2-[3-fluoro-4-(2-oxo-pyrrolidin-1-yl)-phenyl]-ethyl}-dihydro-pyran-2,4-dione], which IC50 is on record?
**A.** The IC50 was 1 to 10 µM.

**Q.** With `CC(C)Oc1ccc(CCC2(C3CCCC3)CC(=O)CC(=O)O2)cc1Cl` (stereo not shown) [Example 81, 6-[2-(3-Chloro-4-isopropoxy-phenyl)-ethyl]-6-cyclopentyl-dihydro-pyran-2,4-dione] as the compound, how does the IC50 read?
**A.** The IC50 was < 1 µM.

**Q.** Which IC50 does the source give for `CC1(c2ccc(CCC3(C4CCCC4)CC(=O)CC(=O)O3)cc2Cl)CC(=O)CC(=O)O1` (stereo not shown) [Example 82, 6-Cyclopentyl-[6-(2-Chloro-phenyl)-6-methyl-dihydro-pyran-2,4-dione]-dihydro-pyran-2,4-dione] here?
**A.** Its IC50 is < 1 µM.

**Q.** With `O=C1OC(CCc2ccc(O)cc2)(C2CCCC2)CC(O)=C1Sc1ccc2ccccc2c1` (stereo not shown) [Example 83] as the compound, how does the IC50 read?
**A.** Its IC50 is 1 to 10 µM.

**Q.** With `O=C1OC(CCc2ccc(O)cc2)(C2CCCC2)CC(O)=C1SCc1ccccc1` (stereo not shown) [Example 84, 3-Benzylsulfanyl-6-cyclopentyl-4-hydroxy-6-[2-(4-hydroxyphenyl)ethyl]-5,6-dihydropyran-2-one] as the compound, how does the IC50 read?
**A.** The IC50 was 1 to 10 µM.

**Q.** For `O=C1OC(CCc2ccc(O)cc2)(C2CCCC2)CC(O)=C1Sc1cccc2ccccc12` (stereo not shown) [Example 85, 6-Cyclopentyl-4-hydroxy-6-[2-(4-hydroxyphenyl)ethyl]-3-(naphthalen-1-ylsulfanyl)-5,6-dihydropyran-2-one], which IC50 is on record?
**A.** The IC50 was 1 to 10 µM.

**Q.** `O=C1OC(CCc2ccc(OCc3ccccc3)cc2)(C2CCCC2)CC(O)=C1Sc1cccc2ccccc12` (stereo not shown) [Example 86, 6-[2-(4-Benzyloxyphenyl)ethyl]-6-cyclopentyl-4-hydroxy-3-(napthalen-1-ylsulfanyl)-5,6-dihydropyran-2-one] was tested. Which IC50 did it give?
**A.** The IC50 was 1 to 10 µM.

**Q.** How did the IC50 turn out when `COc1ccc(CCC2(C3CCCC3)CC(O)=C(Cl)C(=O)O2)cc1` (stereo not shown) [Example 87, 3-Chloro-6-cyclopentyl-4-hydroxy-6-[2-(4-methoxyphenyl)ethyl]-5,6-dihydropyran-2-one] was run?
**A.** Its IC50 is 10 to 50 µM.

**Q.** `O=C1CC(CCc2ccccc2)(C2CCCC2)OC(=O)C1Cc1ccccc1` (stereo not shown) [Example 88, 3-benzyl-6-cyclopentyl-6-(2-phenylethyl)dihydro-2H-pyran-2,4(3H)-dione] was tested. Which IC50 did it give?
**A.** The IC50 was 10 to 50 µM.

**Q.** How did the IC50 turn out when `Cc1cc(SC2=C(O)CC(C)(C)OC2=O)c(C(C)(C)C)cc1N` [Example 89, 3-[(4-amino-2-tert-butyl-5-methylphenyl)thio]-4-hydroxy-6,6-dimethyl-5,6-dihydro-2H-pyran-2-one] was run?
**A.** The IC50 was > 50 µM.

**Q.** Which IC50 does the source give for `COc1cc(OC)c(CCC2(C3CCCC3)CC(O)=C(Cl)C(=O)O2)cc1Cl` (stereo not shown) [Example 90] here?
**A.** Its IC50 is < 1 µM.

**Q.** `COc1cc(OC)c(CCC2(C3CCCC3)CC(O)=C(Sc3nc4nc(C)cc(C)n4n3)C(=O)O2)cc1Cl` (stereo not shown) [Example 91, 6-[2-(5-Chloro-2,4-dimethoxyphenyl)ethyl]-6-cyclopentyl-3-[(5,7-dimethyl[1,2,4]triazolo[1,5-a]pyrimidin-2-yl)thio]-4-hydroxy-5,6-dihydro-2H-pyran-2-one] was tested. Which IC50 did it give?
**A.** The IC50 was < 1 µM.

**Q.** For `COc1ccc(CCC2(C3CCCC3)CC(O)=C(Sc3nc4nc(C)cc(C)n4n3)C(=O)O2)cc1` (stereo not shown) [Example 92, 6-[2-(4-methoxyphenyl)ethyl]-6-cyclopentyl-3-[(5,7-dimethyl[1,2,4]triazolo[1,5-a]pyrimidin-2-yl)thio]-4-hydroxy-5,6-dihydro-2H-pyran-2-one], which IC50 is on record?
**A.** The IC50 was < 1 µM.

**Q.** With `COc1cc(OC)c(CCC2(C3CCCC3)CC(O)=C(Sc3nc[nH]n3)C(=O)O2)cc1Cl` (stereo not shown) [Example 93, 6-[2-(5-Chloro-2,4-dimethoxyphenyl)ethyl]-6-cyclopentyl-4-hydroxy-3-(1H-1,2,4-triazol-3-ylthio)-5,6-dihydro-2H-puran-2-one] as the compound, how does the IC50 read?
**A.** The IC50 was < 1 µM.

**Q.** Which IC50 does the source give for `COc1cc(OC)c(CCC2(C3CCCC3)CC(O)=C(Sc3ccc(C(=O)O)cn3)C(=O)O2)cc1Cl` (stereo not shown) [Example 94, 6-({6-[2-(5-chloro-2,4-dimethoxyphenyl)ethyl]-6-cyclopentyl-4-hydroxy-2-oxo-5,6-dihydro-2H-pyran-3-yl}thio)nicotinic acid] here?
**A.** The IC50 was < 1 µM.

**Q.** `COc1cc(OC)c(CCC2(C3CCCC3)CC(O)=C(Sc3nnc(O)n3C)C(=O)O2)cc1Cl` (stereo not shown) [Example 95, 6-[2(5-chloro-2,4-dimethoxyphenyl)ethyl]-6-cyclopentyl-4-hydroxy-3-[(5-hydroxy-4-methyl-4H-1,2,4-triazol-3-yl)thio]-5,6-dihydro-2H-pyran-2-one] was tested. Which IC50 did it give?
**A.** Its IC50 is < 1 µM.

**Q.** `COc1cc(OC)c(CCC2(C3CCCC3)CC(O)=C(Sc3nnc(-c4cccs4)n3C)C(=O)O2)cc1Cl` (stereo not shown) [Example 96, 6-[2-(5-chloro-2,4-dimethoxyphenyl)ethyl]-6-cyclopentyl-4-hydroxy-3-[(4-methyl-5-thien-2-yl 4H-1,2,4-triazol-3-yl)thio]-5,6-dihydro-2-one] was tested. Which IC50 did it give?
**A.** Its IC50 is < 1 µM.

**Q.** With `COc1cc(OC)c(CCC2(C3CCCC3)CC(O)=C(Sc3nc(N)c4cn[nH]c4n3)C(=O)O2)cc1Cl` (stereo not shown) [Example 97, 3-[(4-amino-1H-pyrazolo[3,4-d]pyrimidin-6-yl)thio]-6-[2-(5-chloro-2,4-dimethoxyphenyl)ethyl]-6-cyclopentyl-4-hydroxy-5,6-dihydro-2H-pyran-2-one] as the compound, how does the IC50 read?
**A.** Its IC50 is < 1 µM.

**Q.** For `COc1cc(OC)c(CCC2(C3CCCC3)CC(O)=C(Sc3ncc(CO)n3C)C(=O)O2)cc1Cl` (stereo not shown) [Example 98, 6-[2-(5-chloro-2,4-dimethoxyphenyl)ethyl]-6-cyclopentyl-4-hydroxy-3-([5-(hydroxymethyl)-1-methyl-1H-imidazol-2-yl]thio)-5,6-dihydro-2H-pyran-2-one], which IC50 is on record?
**A.** Its IC50 is < 1 µM.

**Q.** `COc1cc(OC)c(CCC2(C3CCCC3)CC(O)=C(Sc3nc4ccc(C(=O)O)cc4[nH]3)C(=O)O2)cc1Cl` (stereo not shown) [Example 99, 2-({6-[2-(5-chloro-2,4-dimethoxyphenyl)ethyl]-6-cyclopentyl-4-hydroxy-2-oxo-5,6-dihydro-2H-pyran-3-yl}thio)-1H-benzimidazole-5-carboxylic acid] was tested. Which IC50 did it give?
**A.** The IC50 was < 1 µM.

**Q.** `CCOC(=O)c1cnc(SC2=C(O)CC(CCc3cc(Cl)c(OC)cc3OC)(C3CCCC3)OC2=O)[nH]1` (stereo not shown) [Example 100, Ethyl 2-({6-[2-(5-chloro-2,4-dimethoxyphenyl)ethyl]-6-cyclopentyl-4-hydroxy-2-oxo-5,6-dihydro-2H-pyran-3-yl}thio)-1H-imidazol-4-carboxylate] was tested. Which IC50 did it give?
**A.** The IC50 was < 1 µM.

**Q.** `COc1ccc(CCC2(C3CCCC3)CC(O)=C(Sc3nc4nc(C)cc(C)n4n3)C(=O)O2)cc1Cl` (stereo not shown) [Example 101, 6-[2-(3-Chloro-4-methoxy-phenyl)-ethyl]-6-cyclopentyl-3-(5,7-dimethyl-[1,2,4]triazolo[1,5-a]pyrimidin-2-ylsulfanyl)-4-hydroxy-5,6-dihydro-pyran-2-one] was tested. Which IC50 did it give?
**A.** Its IC50 is < 1 µM.

**Q.** How did the IC50 turn out when `COc1ccc(CCC2(C3CCCC3)CC(O)=C(Sc3ccccc3)C(=O)O2)cc1Cl` (stereo not shown) [Example 102, 6-[2-(3-Chloro-4-methoxy-phenyl)-ethyl]-6-cyclopentyl-4-hydroxy-3-phenylsulfanyl-5,6-dihydro-pyran-2-one] was run?
**A.** Its IC50 is < 1 µM.

Source: patent US7115658B2 (priority 2002, dated 2006)
